# Experimental data as given in PubChem BioAssay (NCI).
#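 All cell lines were grown in 96-well plates and treated with compound for 48 hours. Abbreviation: GI50, concentration required for 50% inhibition of growth. TGI: total growth inhibition.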
# Tests used:
# Assay in all cases: NCI anticancer screen, dose series, 48 h
# 786-0 renal = tested on: 786-0 renal
# A498 renal = tested on: A498 renal
# A549 NSCLC = tested on: A549 NSCLC
# ACHN renal = tested on: ACHN renal
# BT-549 breast = tested on: BT-549 breast
# CAKI-1 renal = tested on: CAKI-1 renal
# CCRF-CEM leukemia = tested on: CCRF-CEM leukemia
# COLO 205 colon = tested on: COLO 205 colon
# DU-145 prostate = tested on: DU-145 prostate
# EKVX NSCLC = tested on: EKVX NSCLC
# HCC-2998 colon = tested on: HCC-2998 colon
# HCT-116 colon = tested on: HCT-116 colon
# HCT-15 colon = tested on: HCT-15 colon
# HL-60(TB) leukemia = tested on: HL-60(TB) leukemia
# HOP-62 NSCLC = tested on: HOP-62 NSCLC
# HOP-92 NSCLC = tested on: HOP-92 NSCLC
# HS 578T breast = tested on: HS 578T breast
# HT29 colon = tested on: HT29 colon
# IGROV1 ovarian = tested on: IGROV1 ovarian
# K-562 leukemia = tested on: K-562 leukemia
# KM12 colon = tested on: KM12 colon
# LOX IMVI melanoma = tested on: LOX IMVI melanoma
# M14 melanoma = tested on: M14 melanoma
# MALME-3M melanoma = tested on: MALME-3M melanoma
# MCF7 breast = tested on: MCF7 breast
# MDA-MB-231 breast = tested on: MDA-MB-231 breast
# MDA-MB-435 = tested on: MDA-MB-435
# MOLT-4 leukemia = tested on: MOLT-4 leukemia
# NCI-H226 lung = tested on: NCI-H226 lung
# NCI-H23 lung = tested on: NCI-H23 lung
# NCI-H460 lung = tested on: NCI-H460 lung
# NCI-H522 lung = tested on: NCI-H522 lung
# NCI/ADR-RES ovarian = tested on: NCI/ADR-RES ovarian
# OVCAR-3 ovarian = tested on: OVCAR-3 ovarian
# OVCAR-4 ovarian = tested on: OVCAR-4 ovarian
# OVCAR-5 ovarian = tested on: OVCAR-5 ovarian
# OVCAR-8 ovarian = tested on: OVCAR-8 ovarian
# PC-3 prostate = tested on: PC-3 prostate
# RPMI-8226 leukemia = tested on: RPMI-8226 leukemia
# RXF 393 renal = tested on: RXF 393 renal
# SF-268 CNS = tested on: SF-268 CNS
# SF-295 CNS = tested on: SF-295 CNS
# SF-539 CNS = tested on: SF-539 CNS
# SK-MEL-2 melanoma = tested on: SK-MEL-2 melanoma
# SK-MEL-28 melanoma = tested on: SK-MEL-28 melanoma
# SK-MEL-5 melanoma = tested on: SK-MEL-5 melanoma
# SK-OV-3 ovarian = tested on: SK-OV-3 ovarian
# SN12C renal = tested on: SN12C renal
# SNB-19 CNS = tested on: SNB-19 CNS
# SNB-75 CNS = tested on: SNB-75 CNS
# SW-620 colon = tested on: SW-620 colon
# T-47D breast = tested on: T-47D breast
# TK-10 renal = tested on: TK-10 renal
# U251 CNS = tested on: U251 CNS
# UACC-257 melanoma = tested on: UACC-257 melanoma
# UACC-62 melanoma = tested on: UACC-62 melanoma
# UO-31 renal = tested on: UO-31 renal
compound,measurement,setting,value
COCO[C@@H]1CC2C=Nc3cc(OCc4ccccc4)c(OC)cc3C(=O)N2C1 (some centres undefined),GI50,786-0 renal,1300 nM
same,TGI,786-0 renal,30900 nM
same,GI50,A498 renal,976 nM
same,TGI,A498 renal,3250 nM
same,GI50,A549 NSCLC,468 nM
same,TGI,A549 NSCLC,9150 nM
same,GI50,ACHN renal,338 nM
same,TGI,ACHN renal,1710 nM
same,GI50,BT-549 breast,310 nM
same,TGI,BT-549 breast,2390 nM
same,GI50,CAKI-1 renal,209 nM
same,TGI,CAKI-1 renal,513 nM
same,GI50,CCRF-CEM leukemia,313 nM
same,TGI,CCRF-CEM leukemia,21600 nM
same,GI50,COLO 205 colon,181 nM
same,TGI,COLO 205 colon,386 nM
same,GI50,DU-145 prostate,426 nM
same,TGI,DU-145 prostate,5240 nM
same,GI50,EKVX NSCLC,1090 nM
same,TGI,EKVX NSCLC,4850 nM
same,GI50,HCC-2998 colon,519 nM
same,TGI,HCC-2998 colon,2630 nM
same,GI50,HCT-116 colon,660 nM
same,TGI,HCT-116 colon,26000 nM
same,GI50,HCT-15 colon,844 nM
same,TGI,HCT-15 colon,6560 nM
same,GI50,HL-60(TB) leukemia,486 nM
same,TGI,HL-60(TB) leukemia,> 100000 nM
same,GI50,HOP-62 NSCLC,351 nM
same,TGI,HOP-62 NSCLC,2800 nM
same,GI50,HOP-92 NSCLC,456 nM
same,TGI,HOP-92 NSCLC,6830 nM
same,GI50,HS 578T breast,572 nM
same,TGI,HS 578T breast,4970 nM
same,GI50,HT29 colon,400 nM
same,TGI,HT29 colon,> 100000 nM
same,GI50,IGROV1 ovarian,436 nM
same,TGI,IGROV1 ovarian,20500 nM
same,GI50,K-562 leukemia,450 nM
same,TGI,K-562 leukemia,> 100000 nM
same,GI50,KM12 colon,578 nM
same,TGI,KM12 colon,10600 nM
same,GI50,LOX IMVI melanoma,305 nM
same,TGI,LOX IMVI melanoma,10400 nM
same,GI50,M14 melanoma,420 nM
same,TGI,M14 melanoma,1390 nM
same,GI50,MALME-3M melanoma,370 nM
same,TGI,MALME-3M melanoma,2790 nM
same,GI50,MCF7 breast,273 nM
same,TGI,MCF7 breast,> 35400 nM
same,GI50,MDA-MB-231 breast,248 nM
same,TGI,MDA-MB-231 breast,1570 nM
same,GI50,MDA-MB-435,455 nM
same,TGI,MDA-MB-435,1860 nM
same,GI50,MOLT-4 leukemia,175 nM
same,GI50,NCI-H226 lung,2880 nM
same,TGI,NCI-H226 lung,61100 nM
same,GI50,NCI-H23 lung,672 nM
same,TGI,NCI-H23 lung,1970 nM
same,GI50,NCI-H460 lung,360 nM
same,TGI,NCI-H460 lung,14300 nM
same,GI50,NCI-H522 lung,152 nM
same,TGI,NCI-H522 lung,640 nM
same,GI50,NCI/ADR-RES ovarian,703 nM
same,TGI,NCI/ADR-RES ovarian,6390 nM
same,GI50,OVCAR-3 ovarian,222 nM
same,TGI,OVCAR-3 ovarian,3130 nM
same,GI50,OVCAR-4 ovarian,1320 nM
same,TGI,OVCAR-4 ovarian,27500 nM
same,GI50,OVCAR-5 ovarian,765 nM
same,TGI,OVCAR-5 ovarian,5790 nM
same,GI50,OVCAR-8 ovarian,348 nM
same,TGI,OVCAR-8 ovarian,6520 nM
same,GI50,PC-3 prostate,1090 nM
same,TGI,PC-3 prostate,36900 nM
same,GI50,RPMI-8226 leukemia,211 nM
same,TGI,RPMI-8226 leukemia,> 20800 nM
same,GI50,RXF 393 renal,242 nM
same,TGI,RXF 393 renal,972 nM
same,GI50,SF-268 CNS,646 nM
same,TGI,SF-268 CNS,9310 nM
same,GI50,SF-295 CNS,559 nM
same,TGI,SF-295 CNS,12100 nM
same,GI50,SF-539 CNS,163 nM
same,TGI,SF-539 CNS,815 nM
same,GI50,SK-MEL-2 melanoma,490 nM
same,TGI,SK-MEL-2 melanoma,2080 nM
same,GI50,SK-MEL-28 melanoma,1600 nM
same,TGI,SK-MEL-28 melanoma,12600 nM
same,GI50,SK-MEL-5 melanoma,357 nM
same,TGI,SK-MEL-5 melanoma,908 nM
same,GI50,SK-OV-3 ovarian,611 nM
same,TGI,SK-OV-3 ovarian,6200 nM
same,GI50,SN12C renal,490 nM
same,TGI,SN12C renal,2140 nM
same,GI50,SNB-19 CNS,1060 nM
same,TGI,SNB-19 CNS,44600 nM
same,GI50,SNB-75 CNS,1090 nM
same,GI50,SW-620 colon,482 nM
same,TGI,SW-620 colon,8610 nM
same,GI50,T-47D breast,154 nM
same,GI50,TK-10 renal,869 nM
same,GI50,U251 CNS,508 nM
same,TGI,U251 CNS,14100 nM
same,GI50,UACC-257 melanoma,1090 nM
same,GI50,UACC-62 melanoma,463 nM
same,TGI,UACC-62 melanoma,1030 nM
same,GI50,UO-31 renal,237 nM
same,TGI,UO-31 renal,2140 nM
